Where two headings read alike, the source gives them in different places.
Biological target: T1, Syk (Homo sapiens, UniProt P43405)
T1 construct: purchased Carna Biosciences
Experiment: Syk HTRF assay
Format: biochemical
In short: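 Read-out is the 665 nm/615 nm time-resolved fluorescence ratio after EDTA stop and Eu-anti-phosphotyrosine plus streptavidin-DyLight 647 detection. Reaction ran 1 h at room temperature with start mix of 87.5 μM ATP and 80 nM substrate peptide in pH 7.6 HEPES/MgCl2 buffer.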

[1] = IC50 activity level, read-out: Activity Level
[2] = read-out: Activity Level (Syk HTRF assay IC50)
[3] = activity levels A-D, read-out: Activity Level (IC50 in the Syk HTRF assay)

Row | Structure (SMILES) | IC50 [1] [nM] | IC50 [2] [nM] | IC50 [3] [nM]
1 | CNC(=O)c1ccc(Nc2nc3cccc(CC4CCC(N)CC4)n3n2)cc1 (stereo not shown) [Example 262, 4-(5-((4-aminocyclohexyl)methyl)-[1,2,4]triazolo[1,5-a]pyridin-2-ylamino)-N-methylbenzamide] | – | – | 0.005 to 250
2 | CNC(=O)CNCc1cccc2nc(Nc3ccc(C(F)(F)F)cc3)nn12 [Example 213, N-methyl-2-((2-(4-(trifluoromethyl)phenylamino)-[1,2,4]triazolo[1,5-a]pyrridin-5-yl)methylamino)acetamide] | – | – | 1000 to 10000
3 | NC(=O)c1cncc(Nc2nc3cccc(N[C@H]4CC[C@@H](O)CC4)n3n2)c1 [Example 369, cis-5-(5-(4-hydroxycyclohexylamino)-[1,2,4]triazolo[1,5-a]pyridin-2-ylamino)nicotinamide] | – | – | 1000 to 10000
4 | c1cncc(Nc2nc3cccc(N[C@@H]4CCCNC4)n3n2)c1 [Example 434, (R)-N^5-(piperidin-3-yl)-N^2-(pyridin-3-yl)-[1,2,4]triazolo[1,5-a]pyridine-2,5-diamine] | 1000 to 10000 | – | –
5 | O=C1CN(Cc2cccc3nc(Nc4ccc(N5CCC(O)CC5)nc4)nn23)CCN1 [Example 221, 4-((2-(6-(4-hydroxypiperidin-1-yl)pyridin-3-ylamino)-[1,2,4]triazolo[1,5-a]pyridin-5-yl)methyl)piperazin-2-one] | – | – | 500 to 1000
6 | Fc1ccc(Nc2nc3cccc(N[C@H]4CCCNC4)n3n2)cc1 [Example 465, (S)-N^2-(4-fluorophenyl)-N^5-(piperidin-3-yl)-[1,2,4]triazolo[1,5-a]pyridine-2,5-diamine] | 0.005 to 250 | – | –
7 | C[C@H](NCc1cccc2nc(Nc3ccc(C(F)(F)F)cc3)nn12)C(N)=O [Example 222, (S)-2-((2-(4-(trifluoromethyl)phenylamino)-[1,2,4]triazolo[1,5-a]pyridin-5-yl)methylamino)propanamide] | – | – | 1000 to 10000
8 | O[C@H]1CC[C@@H](Nc2cccc3nc(Nc4ccc5cn[nH]c5c4)nn23)CC1 [Example 365, cis-4-(2-(1H-indazol-6-ylamino)-[1,2,4]triazolo[1,5-a]pyridin-5-ylamino)cyclohexanol] | – | – | 0.005 to 250
9 | O[C@@H]1CCCC1Nc1cccc2nc(Nc3ccc(C(F)(F)F)cc3)nn12 (stereo in doubt) [Example 377, (1R,2R)-2-(2-(4-(trifluoromethyl)phenylamino)-[1,2,4]triazolo[1,5-a]pyridin-5-ylamino)cyclopentanol] | – | – | 0.005 to 250
10 | FC(F)(F)c1ccc(Nc2nc3cccc(N4CCCC4)n3n2)cc1 [Example 307, 5-(pyrrolidin-1-yl)-N-(4-(trifluoromethyl)phenyl)-[1,2,4]triazolo[1,5-a]pyridin-2-amine] | – | – | 1000 to 10000
11 | CN(C)c1ccc(Nc2nc3cccc(-c4ccc5nc(CO)[nH]c5c4)n3n2)cn1 [Example 298, (6-(2-(6-(dimethylamino)pyridin-3-ylamino)-[1,2,4]triazolo[1,5-a]pyridin-5-yl)-1H-benzo[d]imidazol-2-yl)methanol] | – | – | 0.005 to 250
12 | NC(=O)c1cc(-c2cccc3nc(Nc4ccc(F)cc4)nn23)ccn1 [Example 416, 4-(2-(4-fluorophenylamino)-[1,2,4]triazolo[1,5-a]pyridin-5-yl)picolinamide] | 1000 to 10000 | – | –
13 | O[C@H]1CC[C@@H](Nc2cccc3nc(Nc4cccc(Cl)c4)nn23)CC1 [Example 354, cis-4-(2-(3-chlorophenylamino)-[1,2,4]triazolo[1,5-a]pyridin-5-ylamino)cyclohexanol] | – | – | 0.005 to 250
14 | OC[C@H]1CCN(Cc2cccc3nc(Nc4ccc(C(F)(F)F)cc4)nn23)C1 [Example 324, (S)-(1-((2-(4-(trifluoromethyl)phenylamino)-[1,2,4]triazolo[1,5-a]pyridin-5-yl)methyl)pyrrolidin-3-yl)methanol] | – | – | 1000 to 10000
15 | O[C@H]1CC[C@@H](Oc2cccc3nc(Nc4ccc(F)cc4)nn23)CC1 [Example 417, cis-4-(2-(4-fluorophenylamino)-[1,2,4]triazolo[1,5-a]pyridin-5-yloxy)cyclohexanol] | 1000 to 10000 | – | –
16 | O[C@@H]1CCCN(c2cccc3nc(Nc4ccc(C(F)(F)F)cc4)nn23)C1 [Example 309, (R)-1-(2-(4-(trifluoromethyl)phenylamino)-[1,2,4]triazolo[1.5-a]pyridin-5-yl)piperidin-3-ol] | – | – | 500 to 1000
17 | CN1C(=O)C(C)(C)c2ccc(Nc3nc4cccc(N[C@H]5CC[C@H](O)CC5)n4n3)cc21 (stereo in doubt) [Example 146, trans-6-(5-(4-hydroxycyclohexylamino)-[1,2,4]triazolo[1,5-a]pyridin-2-ylamino)-1,3,3-trimethylindolin-2-one] | – | 0.005 to 250 | –
18 | c1cc(NC2CCCNC2)n2nc(Nc3ccc4cn[nH]c4c3)nc2c1 (stereo in doubt) [Example 464, (S)-N^2-(1H-indazol-6-yl)-N^5-(piperidin-3-yl)-[1,2,4]triazolo[1,5-a]pyridine-2,5-diamine] | 0.005 to 250 | – | –
19 | FC(F)(F)c1ccc(Nc2nc3cccc(CN4CCNCC4)n3n2)cc1 [Example 393, 5-(piperazin-1-ylmethyl)-N-(4-(trifluoromethyl)phenyl)-[1,2,4]triazolo[1,5-a]pyridin-2-amine] | – | – | 0.005 to 250
20 | Cc1n[nH]c2cc(Nc3nc4cccc(NC[C@@H]5CC[C@H](O)C5)n4n3)ccc12 [Example 178, (1S,3R)-3-((2-(3-methyl-1H-indazol-6-ylamino)-[1,2,4]triazolo[1,5-a]pyridin-5-ylamino)methyl)cyclopentanol] | – | 0.005 to 250 | –
21 | CNC(=O)c1ccc(Nc2nc3cccc(CC4CCC(O)C4)n3n2)cc1 (single isomer, unassigned; diastereomer 1) [Example 232, 4-(5-((3-hydroxycyclopentyl)methyl)-[1,2,4]triazolo[1,5-a]pyridin-2-ylamino)-N-methylbenzamide (diastereomer 1)] | – | – | 1000 to 10000
22 | NC(=O)c1nc2ccc(-c3cccc4nc(Nc5ccc(C(F)(F)F)cc5)nn34)cc2[nH]1 [Example 408, 6-(2-(4-(trifluoromethyl)phenylamino)-[1,2,4]triazolo[1,5-a]pyridin-5-yl)-1H-benzo[d]imidazole-2-carboxamide] | 0.005 to 250 | – | –
23 | OC[C@H]1CC[C@@H](Nc2cccc3nc(Nc4ccc(C(F)(F)F)cc4)nn23)CC1 [Example 410, cis-(4-(2-(4-(trifluoromethyl)phenylamino)-[1,2,4]triazolo[1,5-a]pyrridin-5-ylamino)cyclohexyl)methanol] | 0.005 to 250 | – | –

Next, values leading:

Row | IC50 [1] [nM] | IC50 [2] [nM] | IC50 [3] [nM] | Structure (SMILES)
24 | 500 to 1000 | – | – | FC(F)(F)c1ccc(Nc2nc3cccc(N[C@@H]4CCCNC4)n3n2)cc1 [Example 468, (R)-N^5-(piperidin-3-yl)-N^2-(4-(trifluoromethyl)phenyl)-[1,2,4]triazolo[1,5-a]pyridin-2,5-diamine]
25 | – | 0.005 to 250 | – | c1ccc(-c2cccc3nc(Nc4ccc(-c5ncn[nH]5)cc4)nn23)cc1 [compound 56, N-(4-(1H-1,2,4-triazol-5-yl)phenyl)-5-phenyl-[1,2,4]triazolo[1,5-a]pyridin-2-amine]
26 | – | 0.005 to 250 | – | c1ccc(-c2cccc3nc(Nc4ccc5c(NC6CCNCC6)n[nH]c5c4)nn23)cc1 [compound 23]
27 | 500 to 1000 | – | – | c1ccc(Nc2nc3cccc(NC4CCNCC4)n3n2)cc1 [Example 523, N^2-phenyl-N^5-(piperidin-4-yl)-[1,2,4]triazolo[1,5-a]pyridine-2,5-diamine]
28 | 500 to 1000 | – | – | c1ccc(Nc2nc3cccc(-c4ccc5[nH]ncc5c4)n3n2)cc1 [Example 522, 5-(1H-indazol-5-yl)-N-phenyl-[1,2,4]triazolo[1,5-a]pyridin-2-amine]
29 | 0.005 to 250 | – | – | Cn1c(=O)[nH]c2cc(Nc3nc4cccc(CC5CCOCC5)n4n3)ccc21 [Example 532, 1-methyl-5-(5-((tetrahydro-2H-pyran-4-yl)methyl)-[1,2,4]triazolo[1,5-a]pyridin-2-ylamino)-1H-benzo[d]imidazol-2(3H)-one]
30 | – | 500 to 1000 | – | COc1cncc(Nc2nc3cccc(-c4ccccc4)n3n2)c1 [compound 38, N-(5-methoxypyridin-3-yl)-5-phenyl-[1,2,4]triazolo[1,5-a]pyridin-2-amine]
31 | – | 0.005 to 250 | – | c1ccc(-c2cccc3nc(Nc4ccc5nn[nH]c5c4)nn23)cc1 [compound 49, N-(5-phenyl-[1,2,4]triazolo[1,5-a]pyridin-2-yl)-1H-benzo[d][1,2,3]triazol-6-amine]
32 | – | 500 to 1000 | – | Cc1n[nH]c2ccc(Nc3nc4cccc(NC5CCOCC5)n4n3)cc12 [compound 117]
33 | 0.005 to 250 | – | – | CN(c1cccc2nc(Nc3ccc4c(cnn4C)c3)nn12)C1CCOCC1 [Example 542, N^5-methyl-N^2-(1-methyl-1H-indazol-5-yl)-N^5-(tetrahydro-2H-pyran-4-yl)-[1,2,4]triazolo[1,5-a]pyridine-2,5-diamine]
34 | 1000 to 10000 | – | – | O=C(N[C@H]1CCCNC1)c1cccc2nc(Nc3ccccc3)nn12 [Example 504, (S)-2-(phenylamino)-N-(piperidin-3-yl)-[1,2,4]triazolo[1,5-a]pyridine-5-carboxamide]
35 | – | 0.005 to 250 | – | Oc1cccc(-c2cccc3nc(Nc4ccc5cn[nH]c5c4)nn23)c1 [compound 27, 3-(2-(1H-indazol-6-ylamino)-[1,2,4]triazolo[1,5-a]pyridin-5-yl)phenol]
36 | 500 to 1000 | – | – | O=C1NCc2ccc(-c3cccc4nc(Nc5ccccc5)nn34)cc21 [Example 500, 6-(2-(phenylamino)-[1,2,4]triazolo[1,5-a]pyridin-5-yl)-isoindolin-1-one]
37 | – | 0.005 to 250 | – | Nc1ccc2cc(Nc3nc4cccc(-c5ccccc5)n4n3)ccc2n1 [compound 17]
38 | – | 500 to 1000 | – | c1cc(CC2CCOCC2)n2nc(Nc3cnc4cn[nH]c4c3)nc2c1 [compound 106, N-(5-((tetrahydro-2H-pyran-4-yl)methyl)-[1,2,4]triazolo[1,5-a]pyridin-2-yl)-1H-pyrazolo[4,3-b]pyridin-6-amine]
39 | – | 0.005 to 250 | – | CNC(=O)c1ccc(Nc2nc3cccc(-c4cccc(CN)c4)n3n2)cc1 [compound 33, 4-(5-(3-(aminomethyl)phenyl)-[1,2,4]triazolo[1,5-a]pyridin-2-ylamino)-N-methylbenzamide]
40 | – | 250 to 500 | – | Cc1n[nH]c2ccc(Nc3nc4cccc(N[C@@H]5CCOC5)n4n3)cc12 [compound 115]

— US8299056B2 (Signal Pharmaceuticals, LLC, priority 2008, dated 2012)
